Source: ChEMBL document CHEMBL4351013, “Carboxamides vs. methanimines: Crystal structures, binding interactions, photophysical studies, and biological evaluation of (indazole-5-yl)methanimines as monoamine oxidase B and acetylcholinesterase inhibitors” (Eur J Med Chem, 2019)

How the values were obtained:
[1] = molecular target: T1, Amine oxidase [flavin-containing] B (Homo sapiens, UniProt P27338); experiment: biochemical; assay type: cell-based, BTI-TN-5B1-4
T1 sequence (P27338 whole entry): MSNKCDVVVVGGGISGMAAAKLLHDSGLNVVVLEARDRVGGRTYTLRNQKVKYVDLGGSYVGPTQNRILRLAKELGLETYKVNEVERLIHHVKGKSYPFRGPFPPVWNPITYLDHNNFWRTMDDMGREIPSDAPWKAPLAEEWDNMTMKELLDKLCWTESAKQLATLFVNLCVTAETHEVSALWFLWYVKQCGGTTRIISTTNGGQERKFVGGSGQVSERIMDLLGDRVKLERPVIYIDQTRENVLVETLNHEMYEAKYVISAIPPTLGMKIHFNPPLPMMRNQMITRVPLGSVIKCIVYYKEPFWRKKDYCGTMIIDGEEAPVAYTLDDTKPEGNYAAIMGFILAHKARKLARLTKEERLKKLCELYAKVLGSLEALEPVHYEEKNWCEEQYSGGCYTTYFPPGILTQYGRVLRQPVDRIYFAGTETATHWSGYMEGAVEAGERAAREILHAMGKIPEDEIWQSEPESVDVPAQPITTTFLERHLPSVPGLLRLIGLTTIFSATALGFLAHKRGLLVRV
Description: Inhibition of human recombinant MAO-B expressed in baculovirus infected BTI-TN-5B1-4 insect cells assessed as decrease in H2O2 production using p-tyramine as substrate incubated for 20 mins by horse-radish peroxidase/amplex red-based fluorescence method

[2] = organism: Homo sapiens; experiment: Selectivity index, ratio of IC50 for human recombinant MAO-A expressed in baculovirus infected BTI-TN-5B1-4 cells to IC50 for human recombinant MAO-B expressed in baculovirus infected BTI-TN-5B1-4 cells
[3] = molecular target: Cholinesterase (Homo sapiens) (UniProt P06276); experiment: Inhibition of BuChE in human serum using S-butyrylthiocholine iodide as substrate at 100 uM preincubated with enzyme for 10 mins followed by substrate addition measured for 15 mins by Ellman's method relative to control; assay type: cell-free
Cholinesterase (Homo sapiens), sequence (P06276 whole entry): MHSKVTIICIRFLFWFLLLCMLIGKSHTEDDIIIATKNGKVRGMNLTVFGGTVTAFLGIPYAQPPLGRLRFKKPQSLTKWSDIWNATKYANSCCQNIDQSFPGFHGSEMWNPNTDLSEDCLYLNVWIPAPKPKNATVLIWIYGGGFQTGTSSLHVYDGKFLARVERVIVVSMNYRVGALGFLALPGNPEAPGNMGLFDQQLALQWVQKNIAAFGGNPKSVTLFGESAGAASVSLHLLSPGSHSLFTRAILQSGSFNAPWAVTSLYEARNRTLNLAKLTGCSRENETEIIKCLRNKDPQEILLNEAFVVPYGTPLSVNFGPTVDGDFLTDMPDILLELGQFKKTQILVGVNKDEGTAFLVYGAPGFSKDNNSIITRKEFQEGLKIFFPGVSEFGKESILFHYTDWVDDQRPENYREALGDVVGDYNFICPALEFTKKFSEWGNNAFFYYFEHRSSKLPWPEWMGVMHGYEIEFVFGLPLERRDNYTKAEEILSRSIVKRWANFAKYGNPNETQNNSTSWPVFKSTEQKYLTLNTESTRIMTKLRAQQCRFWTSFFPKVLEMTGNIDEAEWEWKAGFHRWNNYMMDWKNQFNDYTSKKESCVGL

[4] = molecular target: T1, Amine oxidase [flavin-containing] B; experiment: Potency index, ratio of selegiline IC50 to compound IC50 for human recombinant MAO-B expressed in baculovirus infected BTI-TN-5B1-4 insect cells using p-tyramine as substrate
[5] = Stability of the compound in MeOH assessed as compound purity level at 50 uM measured under daylight exposure for 76 days by LC/ESI-MS analysis; assay type: physicochemical; conditions: methanol; read-out: Stability
[6] = Stability of the compound in MeOH at 50 uM measured under daylight exposure for 3 days by UV-visible spectra analysis; assay type: physicochemical; conditions: 72 h
[7] = Stability of the compound in DMSO at 50 uM measured under daylight exposure for 76 days by UV-visible spectra analysis; assay type: physicochemical; conditions: 1824 h
[8] = Stability of the compound in ACN at 50 uM measured under daylight exposure for 76 days by UV-visible spectra analysis; assay type: physicochemical; conditions: 1824 h
[9] = Stability of the compound in dry MeOH at 1 to 10 mM measured under daylight exposure for 24 to 96 hrs by LC/ESI-MS analysis; assay type: physicochemical; conditions: 10000 µM
[10] = Stability of the compound in dry MeOH assessed as dimers at 1 mM measured under daylight exposure for >96 hrs by LC/ESI-MS analysis; assay type: physicochemical; conditions: 1000 µM
[11] = Stability of the compound in dry MeOH at 1 mM measured under daylight for 62 days by LC/ESI-MS analysis; assay type: physicochemical; conditions: 1488 h, 1000 µM
[12] = Stability of the compound in dry MeOH assessed as compound crystallization at 10 mM measured under daylight for 43 hrs by LC/ESI-MS analysis; assay type: physicochemical; conditions: 10000 µM
[13] = molecular target: T2, Amine oxidase [flavin-containing] A (Homo sapiens, UniProt P21397); experiment: biochemical
T2 sequence (P21397 whole entry): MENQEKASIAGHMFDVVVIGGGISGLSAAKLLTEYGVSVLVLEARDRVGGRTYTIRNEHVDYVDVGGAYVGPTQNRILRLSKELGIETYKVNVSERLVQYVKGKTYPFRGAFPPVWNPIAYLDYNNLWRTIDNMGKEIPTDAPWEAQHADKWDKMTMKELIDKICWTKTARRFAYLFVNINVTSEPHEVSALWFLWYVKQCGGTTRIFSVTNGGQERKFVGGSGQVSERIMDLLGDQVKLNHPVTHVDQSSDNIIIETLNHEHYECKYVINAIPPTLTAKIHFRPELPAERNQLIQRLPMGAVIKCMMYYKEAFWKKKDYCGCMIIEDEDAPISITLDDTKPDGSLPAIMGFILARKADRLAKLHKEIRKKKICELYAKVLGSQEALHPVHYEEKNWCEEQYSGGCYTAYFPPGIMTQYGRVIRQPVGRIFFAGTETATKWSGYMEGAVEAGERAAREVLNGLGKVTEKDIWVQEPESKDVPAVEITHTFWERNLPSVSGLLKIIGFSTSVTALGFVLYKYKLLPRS
Description: Inhibition of human recombinant MAO-A expressed in baculovirus infected BTI-TN-5B1-4 insect cells assessed as decrease in H2O2 production using p-tyramine as substrate incubated for 20 mins by horse-radish peroxidase/amplex red-based fluorescence method

[14] = molecular target: Acetylcholinesterase (Homo sapiens, UniProt P22303); experiment: Inhibition of AChE in human erythrocytes using acetylthiocholine iodide as substrate preincubated with enzyme for 10 mins followed by substrate addition measured for 15 mins by Ellman's method; assay type: cell-based
Acetylcholinesterase, sequence (P22303 whole entry): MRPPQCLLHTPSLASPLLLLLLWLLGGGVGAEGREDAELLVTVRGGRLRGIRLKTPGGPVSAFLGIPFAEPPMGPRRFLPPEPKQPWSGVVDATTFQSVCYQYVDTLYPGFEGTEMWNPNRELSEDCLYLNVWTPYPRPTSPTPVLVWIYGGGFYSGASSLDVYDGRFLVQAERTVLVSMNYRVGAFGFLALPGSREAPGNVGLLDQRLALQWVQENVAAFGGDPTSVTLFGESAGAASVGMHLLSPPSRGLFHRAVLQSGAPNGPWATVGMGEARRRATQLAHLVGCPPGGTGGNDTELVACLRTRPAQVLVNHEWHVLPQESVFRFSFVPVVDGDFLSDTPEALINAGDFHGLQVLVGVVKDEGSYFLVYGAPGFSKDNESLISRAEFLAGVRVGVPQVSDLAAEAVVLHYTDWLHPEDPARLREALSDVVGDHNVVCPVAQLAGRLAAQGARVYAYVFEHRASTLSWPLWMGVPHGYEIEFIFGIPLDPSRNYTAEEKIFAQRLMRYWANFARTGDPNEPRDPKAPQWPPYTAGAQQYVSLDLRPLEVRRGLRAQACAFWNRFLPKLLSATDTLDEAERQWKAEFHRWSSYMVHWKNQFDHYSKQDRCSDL

[15] = Cytotoxicity against human HepG2 cells assessed as cell viability at 50 uM measured after 72 hrs by MTT assay relative to control; assay type: cell-based; conditions: read-out: Activity
[16] = tested on: HepG2; experiment: Cytotoxicity against human HepG2 cells assessed as mitochondrial dysfunction at 25 to 50 uM; assay type: cell-based; conditions: hepg2, 50 µM
[17] = molecular target: T1, Amine oxidase [flavin-containing] B; experiment: Competitive inhibition of human recombinant MAO-B expressed in baculovirus infected BTI-TN-5B1-4 insect cells using p-tyramine as substrate by Dixon- plot analysis
[18] = molecular target: T1, Amine oxidase [flavin-containing] B; experiment: Competitive inhibition of human recombinant MAO-B expressed in baculovirus infected BTI-TN-5B1-4 insect cells using p-tyramine as substrate by Lineweaver-Burk plot analysis

Structure (SMILES)	Ki [1] [nM]	Ratio IC50 [2]	inhibition [3] [%]	IC50 [13] [nM]	further results
Clc1cc(/N=C/c2ccc3[nH]ncc3c2)cnc1Cl	0.57	> 7810	9.64	> 10000	IC50 [1]: 1.28 nM; Ratio IC50 [4]: 4.3; remaining at 1824 h, 50 µM [5]: 68.1%; Stability [6]: Stable; Stability [7]: Stable; Stability [8]: Stable; Stability [9]: Stable; Stability [10]: Unstable; Stability [11]: Unstable; Stability [12]: Unstable
COCCn1ncc2cc(C(=O)Nc3ccc(Cl)c(Cl)c3)ccc21		> 2660	9.58		Ki [13]: 0.48 nM
Cn1ncc2cc(C(=O)Nc3ccc(Cl)c(Cl)c3)ccc21			11.1		IC50 [14]: 78300 nM
Clc1ccc(/N=C/c2ccc3[nH]ncc3c2)cc1Cl			9.01	> 10000	viability at 72 h, 50 µM [15]: 80.6%; Stability [7]: Stable; Stability [8]: Stable; Activity [16]: Non-Toxic
O=C(Nc1ccc(Cl)c(Cl)c1)c1ccc2[nH]ncc2c1		17100	11.3		Ratio IC50 [4]: 9; viability at 72 h, 50 µM [15]: 66.3%; Activity [16]: Non-Toxic
Cn1ncc2cc(/C=N/c3ccc(Cl)c(Cl)c3)ccc21	0.46	9710	8.57	> 10000	Ki [17]: 0.63 nM; inhibition (INH) [18]: Active
O=C(Nc1ccc(Cl)c(F)c1)c1ccc2[nH]ncc2c1	0.29	15000	2.23		
Fc1cc(/N=C/c2ccc3[nH]ncc3c2)ccc1Cl	0.84	5240	6.97		
Fc1ccc(/N=C/c2ccc3[nH]ncc3c2)cc1Cl	0.93	4760	4.56	> 10000	
O=C(Nc1cnc(Cl)c(Cl)c1)c1ccc2[nH]ncc2c1	2.39	> 1840	9.23	> 10000	
COCCn1ncc2cc(/C=N/c3ccc(Cl)c(Cl)c3)ccc21	0.57	3160	2.27	> 10000	IC50 [1]: 1.29 nM
O=C(Nc1ccc(F)c(Cl)c1)c1ccc2[nH]ncc2c1			7.21		
